SMILES strings stand for the structures.

Sequence of Recombinant Human ENPP-1 Protein (P22413 whole entry): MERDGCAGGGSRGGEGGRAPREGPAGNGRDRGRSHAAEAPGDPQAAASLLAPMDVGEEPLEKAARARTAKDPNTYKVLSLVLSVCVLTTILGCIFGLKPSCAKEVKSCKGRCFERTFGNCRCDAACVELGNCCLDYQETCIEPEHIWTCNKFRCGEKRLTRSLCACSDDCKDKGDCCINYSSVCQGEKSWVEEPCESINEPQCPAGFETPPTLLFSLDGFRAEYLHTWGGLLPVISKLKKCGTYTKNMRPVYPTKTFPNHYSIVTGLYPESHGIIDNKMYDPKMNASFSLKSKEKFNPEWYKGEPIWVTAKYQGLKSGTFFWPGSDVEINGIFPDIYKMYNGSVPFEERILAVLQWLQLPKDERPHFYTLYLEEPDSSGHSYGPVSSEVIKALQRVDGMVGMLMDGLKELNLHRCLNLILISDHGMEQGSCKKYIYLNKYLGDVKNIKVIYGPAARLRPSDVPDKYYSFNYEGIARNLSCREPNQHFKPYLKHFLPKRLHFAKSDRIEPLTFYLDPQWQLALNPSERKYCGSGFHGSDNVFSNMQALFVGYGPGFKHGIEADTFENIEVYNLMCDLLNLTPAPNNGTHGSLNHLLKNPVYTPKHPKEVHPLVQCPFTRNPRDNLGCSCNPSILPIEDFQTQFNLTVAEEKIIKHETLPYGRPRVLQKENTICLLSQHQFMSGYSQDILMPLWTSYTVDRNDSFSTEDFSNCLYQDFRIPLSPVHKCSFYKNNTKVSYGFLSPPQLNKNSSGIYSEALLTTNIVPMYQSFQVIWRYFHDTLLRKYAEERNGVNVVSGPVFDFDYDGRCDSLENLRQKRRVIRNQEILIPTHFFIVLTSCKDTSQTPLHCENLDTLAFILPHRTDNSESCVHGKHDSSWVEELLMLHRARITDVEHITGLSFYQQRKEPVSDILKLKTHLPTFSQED

For the assay, the target named is Recombinant Human ENPP-1 Protein (Homo sapiens (Human), UniProt P22413). Briefly: ENPP1 Inhibition Assay. It counts as biochemical. The note with it: substrate Thymidine 5′-monophosphate p-nitrophenol ester; pH 9.0; 37° C. for 45 minutes; absorbance at 405 nm. The protocol:
Assay Buffer: 1 mM CaCl2), 0.2 mM ZnCl2, 50 mM Tris, pH 9.0. Substrate: 8 mM Thymidine 5′-monophosphate p-nitrophenol ester sodium salt (Sigma Cat #T4510). Enzyme: […] Recombinant Human ENPP-1 Protein (R&D Cat #6136-EN-010) in DMSO in 96-well clear assay plates.
An eight point serial dilution of drugs was prepared in 10× in assay buffer with the final assay concentrations starting at 10 μM, 3 μM, 1 μM, 0.3 μM and 0 μM. A dilution of DMSO was included as a control. The assay plate was set up as follows with each well in duplicate: 81 μL assay buffer+10 μL ENPP1 inhibitor or DMSO+5 μL Substrate+4 μL Enzyme. Both the enzyme and substrate was added to opposite sides of the well to ensure that there was no interaction until all wells had both components. The plate was then centrifuged gently for 10 seconds, followed by an incubation at 37° C. for 45 minutes. The reaction was quantified by measuring absorbance at 405 nm using the Envision.
IC50 values are determined using GraphPad Prism 5 software. The data were entered as an X-Y plot into the software as percent inhibition for each concentration of the drug. The concentration values of the drug were log transformed and the nonlinear regression was carried out using the “sigmoidal dose-response (variable slope)” option within the GraphPad software to model the data and calculate IC50 values. The IC50 values reported are the concentration of drug at which 50% inhibition was reached.
In the case of `Cc1ccc(F)c(NC(=O)CSc2nc(C(=O)O)c[nH]2)c1` [Compound I-17, 2-((2-((2-fluoro-5-methylphenyl)amino)-2-oxoethyl)thio)-1H-imidazole-4-carboxylic acid], the half-maximal inhibitory concentration (IC50) is greater than 10 µM.

For `COc1ccc(Br)cc1NC(=O)CSc1nc(C(=O)O)c[nH]1` [Compound I-36, 2-((2-((5-bromo-2-methoxyphenyl)amino)-2-oxoethyl)thio)-1H-imidazole-4-carboxylic acid], the 50% inhibitory concentration (IC50) was in the range of 0.2 to 10 µM.

On to `O=C(CSc1nc(C(=O)O)c[nH]1)Nc1c(Cl)cccc1Cl` [Compound I-18, 2-((2-((2,6-dichlorophenyl)amino)-2-oxoethyl)thio)-1H-imidazole-4-carboxylic acid], for which the half-maximal inhibitory concentration (IC50) was greater than 10 µM.

Take `COc1ccc(NC(=O)CSc2nc(/C(N)=N/O)c[nH]2)cc1OC` [Compound I-5, (Z)-N-(3,4-dimethoxyphenyl)-2-((4-(N′-hydroxycarbamimidoyl)-1H-imidazol-2-yl)thio)acetamide]: the IC50 is less than 0.2 µM.

For `O=C(CSc1nc(C(=O)O)c[nH]1)Nc1c(F)cccc1F` [Compound I-13, 2-((2-((2,6-difluorophenyl)amino)-2-oxoethyl)thio)-1H-imidazole-4-carboxylic acid], the IC50 was greater than 10 µM.

Turning to `COc1ccc(CNC(=O)CSc2nc(C(=O)O)c[nH]2)c(OC)c1` [Compound I-15, 2-((2-((2,4-dimethoxybenzyl)amino)-2-oxoethyl)thio)-1H-imidazole-4-carboxylic acid], the IC50 was greater than 10 µM.

Consider `O=C(CSc1nc(C(=O)O)c[nH]1)NCc1cccc(Br)c1` [Compound I-11, 2-((2-((3-bromobenzyl)amino)-2-oxoethyl)thio)-1H-imidazole-4-carboxylic acid], for which the IC50 was greater than 10 µM.

With `O=C(CSc1nc(C(=O)O)c[nH]1)Nc1ccc(Br)cc1` [Compound I-23, 2-((2-((4-bromophenyl)amino)-2-oxoethyl)thio)-1H-imidazole-4-carboxylic acid], the concentration for half-maximal inhibition (IC50) was 0.2 to 10 µM.

For the compound `COc1ccc(NC(=O)CSc2nc(C(=O)OCC(O)CO)c[nH]2)cc1OC` (stereo not drawn) [Compound I-30, 2,3-dihydroxypropyl 2-((2-((3,4-dimethoxyphenyl)amino)-2-oxoethyl)thio)-1H-imidazole-4-carboxylate], the IC50 is less than 0.2 µM.

`COc1cc(NC(=O)CSc2nc(C(=O)O)c[nH]2)c(OC)cc1Cl` [Compound I-27, 2-((2-((4-chloro-2,5-dimethoxyphenyl)amino)-2-oxoethyl)thio)-1H-imidazole-4-carboxylic acid]: the half-inhibitory concentration (IC50) is 0.2 to 10 µM.

`Cc1ccc(NC(=O)CSc2nc(C(=O)O)c[nH]2)cc1C` [Compound I-31, 2-((2-((3,4-dimethylphenyl)amino)-2-oxoethyl)thio)-1H-imidazole-4-carboxylic acid]: the half-inhibitory concentration (IC50) was greater than 10 µM.

In the case of `O=C(CSc1nc(C(=O)O)c[nH]1)Nc1ccc(Cl)cc1F` [Compound I-7, 2-((2-((4-chloro-2-fluorophenyl)amino)-2-oxoethyl)thio)-1H-imidazole-4-carboxylic acid], the IC50 lay within 0.2 to 10 µM.

`O=C(CSc1nc(C(=O)O)c[nH]1)Nc1ccc(Cl)cc1` [Compound I-20, 2-((2-((4-chlorophenyl)amino)-2-oxoethyl)thio)-1H-imidazole-4-carboxylic acid]: the IC50 is 0.2 to 10 µM.

Consider `COc1cc(NC(=O)CSc2nc(C(=O)O)c[nH]2)ccc1Cl` [Compound I-14, 2-((2-((4-chloro-3-methoxyphenyl)amino)-2-oxoethyl)thio)-1H-imidazole-4-carboxylic acid], for which the concentration for half-maximal inhibition (IC50) is less than 0.2 µM.

Consider `COc1ccc(NC(=O)CSc2nc(C(N)=O)c[nH]2)cc1OC` [Compound I-1, 2-((2-((3,4-dimethoxyphenyl)amino)-2-oxoethyl)thio)-1H-imidazole-4-carboxamid], for which the IC50 is less than 0.2 µM.

Turning to `CNC(=O)c1c[nH]c(SCC(=O)Nc2ccc(OC)c(OC)c2)n1` [Compound I-2, 2-((2-((3,4-dimethoxyphenyl)amino)-2-oxoethyl)thio)-N-methyl-1H-imidazole-4-carboxamide], the IC50 was 0.2 to 10 µM.

Regarding `COc1ccc(NC(=O)CSc2nc(C(=O)O)c[nH]2)cc1F` [Compound I-10, 2-((2-((3-fluoro-4-methoxyphenyl)amino)-2-oxoethyl)thio)-1H-imidazole-4-carboxylic acid], the concentration for half-maximal inhibition (IC50) is less than 0.2 µM.

In the case of `O=C(CSc1nc(C(=O)O)c[nH]1)Nc1ccc(N2CCOCC2)cc1` [Compound I-24, 2-((2-((4-morpholinophenyl)amino)-2-oxoethyl)thio)-1H-imidazole-4-carboxylic acid], the half-inhibitory concentration (IC50) was greater than 10 µM.

For the compound `COc1ccc(CNC(=O)CSc2nc(C(=O)O)c[nH]2)cc1OC` [Compound I-32, 2-((2-((3,4-dimethoxybenzyl)amino)-2-oxoethyl)thio)-1H-imidazole-4-carboxylic acid], the IC50 was in the range of 0.2 to 10 µM.

On to `COc1ccc(NC(=O)CSc2nc(C(=O)O)c[nH]2)c(OC)c1F` [Compound I-9, 2-((2-((3-fluoro-2,4-dimethoxyphenyl)amino)-2-oxoethyl)thio)-1H-imidazole-4-carboxylic acid], for which the 50% inhibitory concentration (IC50) is greater than 10 µM.

For the compound `COc1ccc(Oc2ccc(NC(=O)CSc3nc(C(=O)O)c[nH]3)cc2)cc1` [Compound I-16, 2-((2-((4-(4-methoxyphenoxy)phenyl)amino)-2-oxoethyl)thio)-1H-imidazole-4-carboxylic acid], the IC50 fell in the range of 0.2 to 10 µM.

Consider `COc1ccc(NC(=O)CSc2nc(C(=O)O)c[nH]2)cc1C#N` [Compound I-33, 2-((2-((3-cyano-4-methoxyphenyl)amino)-2-oxoethyl)thio)-1H-imidazole-4-carboxylic acid], for which the half-inhibitory concentration (IC50) was less than 0.2 µM.

As to `O=C(CSc1nc(C(=O)O)c[nH]1)NCc1ccc(Cl)cc1` [Compound I-22, 2-((2-((4-chlorobenzyl)amino)-2-oxoethyl)thio)-1H-imidazole-4-carboxylic acid], the 50% inhibitory concentration (IC50) was greater than 10 µM.

Take `CCOC(=O)c1c[nH]c(SCC(=O)Nc2ccc(OC)c(OC)c2)n1` [Compound I-6, ethyl 2-((2-((3,4-dimethoxyphenyl)amino)-2-oxoethyl)thio)-1H-imidazole-4-carboxylate]: the 50% inhibitory concentration (IC50) was less than 0.2 µM.

For the compound `COc1ccc(NC(=O)CSc2nc(-c3nnn[nH]3)c[nH]2)cc1OC` [Compound I-28, 2-((4-(1H-tetrazol-5-yl)-1H-imidazol-2-yl)thio)-N-(3,4-dimethoxyphenyl)acetamide], the half-maximal inhibitory concentration (IC50) was less than 0.2 µM.

As to `COc1ccc(NC(=O)CSc2nc(C(=O)O)c[nH]2)cc1OC` [Compound I-3, 2-((2-((3,4-dimethoxyphenyl)amino)-2-oxoethyl)thio)-1H-imidazole-4-carboxylic acid], the IC50 was less than 0.2 µM.

As for `Cc1cccc(NC(=O)CSc2nc(C(=O)O)c[nH]2)c1C` [Compound I-19, 2-((2-((2,3-dimethylphenyl)amino)-2-oxoethyl)thio)-1H-imidazole-4-carboxylic acid], the concentration for half-maximal inhibition (IC50) is greater than 10 µM.

Consider `COc1ccc(NC(=O)CSc2nc(C#N)c[nH]2)cc1OC` [Compound I-4, 2-((4-cyano-1H-imidazol-2-yl)thio)-N-(3,4-dimethoxyphenyl)acetamide], for which the IC50 was less than 0.2 µM.

Regarding `COc1ccc(CNC(=O)CSc2nc(C(=O)O)c[nH]2)cc1` [Compound I-37, 2-((2-((4-methoxybenzyl)amino)-2-oxoethyl)thio)-1H-imidazole-4-carboxylic acid], the half-maximal inhibitory concentration (IC50) was in the range of 0.2 to 10 µM.

Take `COc1ccc(NC(=O)CSc2nc(C(=O)O)c[nH]2)cc1Br` [Compound I-34, 2-((2-((3-bromo-4-methoxyphenyl)amino)-2-oxoethyl)thio)-1H-imidazole-4-carboxylic acid]: the IC50 is less than 0.2 µM.

As to `COc1cc(NC(=O)CSc2nc(C(=O)O)c[nH]2)cc(OC)c1` [Compound I-25, 2-((2-((3,5-dimethoxyphenyl)amino)-2-oxoethyl)thio)-1H-imidazole-4-carboxylic acid], the IC50 fell in the range of 0.2 to 10 µM.

On to `COc1ccc(NC(=O)CSc2nc(C(=O)O)c[nH]2)c(OC)c1OC` [Compound I-26, 2-((2-oxo-2-((2,3,4-trimethoxyphenyl)amino)ethyl)thio)-1H-imidazole-4-carboxylic acid], for which the IC50 is greater than 10 µM.

For the compound `COc1ccc(NC(=O)CSc2nc(C(=O)OCCN(C)C)c[nH]2)cc1OC` [Compound I-29, 2-(dimethylamino)ethyl 2-((2-((3,4-dimethoxyphenyl)amino)-2-oxoethyl)thio)-1H-imidazole-4-carboxylate], the IC50 lay in the range of 0.2 to 10 µM.

Usually IC50 stands for the concentration needed to halve the response being measured.

These data come from patent US20240034727A1, “IMIDAZOLE COMPOUNDS AS INHIBITORS OF ENPP1” (STINGRAY THERAPEUTICS, INC., priority 2020, published 2024).
